From US11160279B2, “Method of controlling herbicide resistant weeds” (Sumitomo Chemical Company, Limited, priority 2018, dated 2021)

Columns and labels:
Format in all cases: in vivo
[1] = system: Amaranthus palmeri having an Arg128Met mutation in PPO2; assay: Soil surface treatment on the day the weed is sown, soybean sown 7 days later, greenhouse pot test (Example 1); settings: 10, 20, 40, or 80 g/ha applied to soil surface, 200 L/ha aqueous dilution; soybean sown after 7 days; examined after 14 days
Excerpt: Amaranthus palmeri having an Arg128Met mutation in PPO2 is sown in a plastic pot. On the same day, a compound X is applied to the surface of soil in an amount of 10, 20, 40, or 80 g/ha by spraying 200 L/ha of an aqueous dilution containing the compound X. Then, the weeds are cultivated in a greenhouse and soybean seeds are sown after 7 days, to examine the effects on the weeds and phytotoxic effects on soybean after 14 days.

[2] = system: Amaranthus palmeri having an Arg128Met mutation in PPO2; assay: Foliar treatment 21 days after sowing weed and soybean, greenhouse pot test (Example 3); settings: 10, 20, 40, or 80 g/ha foliar treatment 21 days after sowing, 200 L/ha aqueous dilution; examined 14 days after the treatment
Excerpt: Amaranthus palmeri having an Arg128Met mutation in PPO2 and soybean are sown in a plastic pot. Then, the weeds and soybean are cultivated in a greenhouse. A compound X is applied in an amount of 10, 20, 40, or 80 g/ha by spraying 200 L/ha of an aqueous dilution containing the compound X to perform foliar treatment 21 days after the sowing. Then, the weeds and soybean are cultivated in a greenhouse to examine the effects on the weeds and phytotoxic effects on soybean 14 days after the treatment.

[3] = system: Amaranthus palmeri having an Arg128Met mutation in PPO2; assay: Soil surface treatment on the day weed and soybean are sown, greenhouse pot test (Example 2); settings: 10, 20, 40, or 80 g/ha applied to soil surface on day of sowing, 200 L/ha aqueous dilution; examined after 21 days
Excerpt: Amaranthus palmeri having an Arg128Met mutation in PPO2 and soybean are sown in a plastic pot. On the same day, a compound X is applied to the surface of soil in an amount of 10, 20, 40, or 80 g/ha by spraying 200 L/ha of an aqueous dilution containing the compound X. Then, the weeds and soybean are cultivated in a greenhouse to examine the effects on the weeds and phytotoxic effects on soybean after 21 days.

Measured: effects on the weeds (herbicidal effect)

CCOC(=O)COc1ncccc1Oc1cc(-n2c(=O)cc(C(F)(F)F)n(C)c2=O)c(F)cc1Cl [compound X, Ethyl [3-[2-chloro-4-fluoro-5-(1-methyl-6-trifluoromethyl-2,4-dioxo-1,2,3,4-tetrahydropyrimidine-3-yl)phenoxy]-2-pyridyloxy]acetate]
valuable effect: all assays above
